This is an account of results in patent US8618178B2, “Method and substances for treating T-cell mediated autoimmune diseases” (Eberhard-Karls-Universitaet Tuebingen Universitaetsklinikum, priority 2006, dated 2013).

Common to all, as to type: cell-based, mouse
In one test the test system is BMDC. As to the kind of experiment: Measurement of reactive oxygen species (ROS) in DC with dichlorofluorescein, flow cytometry. The settings on record: for effect on DMF-induced ROS increase in DC: added to DMF, 1 mM. How it is done: For the measurement of reactive oxygen species (ROS) in DC and APC, the fluorescent dye 2′,7′ dichlorofluorescein (H2 DCFDA, Molecular Probes, Eugene, USA) was used. 5×10^5 DC were preincubated in 1 ml of RPMI medium (without mercaptoethanol) for 60 mins at 37° C. in the incubator with 1% DMSO or 10 μg/ml DMF+/−NAC (1 mM) or GSX (1 mM). After this preincubation, 1 μM/ml H2 DCFDA was added and the cells incubated for a further 30 mins at 37° C. Within one hour, the fluorescence produced was detected using flow cytometry (FL1).
(§1) As antigen presenting cells (APC), T cell depleted spleen cells from syngenic mice were used. Dendritic cells (DC) which were obtained from bone marrow (BMDC) and cultured with GM-CSF were used for the relevant experiments on day 7 of culturing. For the experiment, in each case an equal number of APC were cultured either with the medium alone, with L-BSO (C8H18N2O3S, 0.5 mM), dimethyl sulfoxide DMSO(C2H6OS), dimethyl fumarate DMF (C6H8O4, dissolved in DMSO, 70 μM), or calcium monomethyl fumarate (MMF; CaC10H10O8, 200 μM). All substances except for MMF (Fumapharm) were purchased from Sigma-Aldrich. At the respective stated times (see below) the cells were either analyzed directly for their GSH content, used for T cell stimulation or stimulated for IL-2 production with Escherichia coli lipopolysaccharides 055.B5 (Sigma-Aldrich) or CpG-DNA 1668 (MWG Biotech) and IL-4 (Stratmann). In order to raise the GSH level again, 1 mM GSH-OEt (C12H21N3O6S; Sigma-Aldrich) or 1 mM NAC (Sigma-Aldrich) was added.
For testing the potential of pharmaceutical substances to induce the ROS, the following procedure was developed: for the measurement of reactive oxygen species (ROS) in cells, the fluorescent dye 2′,7′ dichlorofluorescein (H2 DCFDA) is used. The absorption spectrum of the substance is 492-495 nm and the emission spectrum lies in the range between 517-527 nm. On induction of cell stress, e.g., by the administration of ROS-causing reagents, oxidation of the H2 DCFDA to DCFDA+H2 occurs. The fluorescence arising as a result can be detected using flow cytometry (FL1).
(Flow cytometry measures light scatter and fluorescence of single cells or particles in a stream.)

For a further test, the system named is IL-12. Briefly: IL-12 production by DC, ELISA of culture supernatants. The conditions noted are these: for effect on IL-12 suppression caused by GSH depletion in DC: exogenous addition, 1 mM. How it is done:
(§2) IL-4, IL-10, IL-12 and interferon-γ were determined using the ELISA (enzyme linked immunosorbent assay) set or with the use of individual components from BD BioSciences. IL-23 in the supernatant was determined using the ELISA set (eBioscience). For intracytoplasmic cytokine analyses, the T cells were restimulated with PMA/ionomycin or with APC and peptide in the presence of brefeldin A, then fixed and permeabilized and stained. For the surface staining, anti-CD4 or KJ1-26 antibodies were used; the cytokine antibodies (PE labeled) were all obtained from BD Pharmingen.
as §1, with “used for T cell stimulation or stimulated for IL-2 production with Escherichia coli lipopolysaccharides” left out
For orientation: ELISA stands for enzyme-linked immunosorbent assay.

The next test deals with IL-23. Briefly: IL-23 production by DC, ELISA of culture supernatants. The conditions noted are these: GSH-OEt added to DMF. The method, then: as §2
as §1, with “added. The GSH reservoirs in mice were depleted by feeding with DMF or MMF, and in man by treatment with Fumaderm®.” for “added.”

In the next test the test system is IL-10. Briefly: IL-10 production by DC, ELISA of culture supernatants. The settings on record: GSH-OEt added to DMF. The method, then:
as §2
as §1, with “All substances except for MMF (Fumapharm) were purchased from Sigma-Aldrich.” left out, “In order to raise the GSH level again, 1 mM GSH-OEt (C12H21N3O6S; Sigma-Aldrich) or 1 mM NAC (Sigma-Aldrich) was added.” left out

For `OO` [H2O2, hydrogen peroxide], in the test on BMDC (dichlorofluorescein, flow cytometry), the “intracellular ROS in DC” value was “induction of ROS”. Besides, in the test on IL-12 (after stimulation with LPS), the “IL-12 production by DC” value is on record as “lower the production of IL-12”.
Regarding `CCOC(=O)CNC(=O)[C@H](CS)NC(=O)CC[C@H](N)C(=O)O` [GSH-OEt, GSH ethyl ester], the “effect on DMF-induced ROS increase in DC” value in the test on BMDC was “completely neutralized”. For the same compound, the “effect on IL-12 suppression caused by GSH depletion in DC” value with IL-12 is listed as “neutralized the IL-12 suppression”. Besides, in the test with IL-23, the “IL-23 production in DC, added to DMF” value is given as “restored IL-23 production”. Further, the “IL-10 production in DC, added to DMF” value in the test on IL-10 was “decreased IL-10 production”.
In the case of `CC(=O)N[C@@H](CS)C(=O)O` [NAC, N-acetylcysteine], in the test on BMDC, the “effect on DMF-induced ROS increase in DC” value was “completely neutralized”. In addition, in the test with IL-12, the “effect on IL-12 suppression caused by GSH depletion in DC” value is given as “same effects as GSH-OEt”.
